Key:
[1] = tested on: mouse Th17 cell differentiation; test: Cytokine induced mouse Th17 cell differentiation (IL17a production, FACS); format: cell-based; details: for effect on mouse Th17 cell differentiation / IL-17a in mouse CD4 T cells (in words): IL-6 and TGF-β
Description: Cytokine induced mouse Th17 cells differentiation. Effects on mouse endogenous RORγt in a relevant physiological setting were determined by testing compounds in the Th17 cell differentiation assay. […] Th1 or regulatory T cell differentiation was used as a counter-screen method to select specific compounds that only affect Th17 cell differentiation without having pleiotrophic effects on general T cell proliferation or cytokine production.
Naive CD4 T cells were cultured with CD3/CD28 stimulatory antibodies in presence of TGFβ and IL6. Compounds were added on Day 1 and cells were analyzed on Day 4. Numbers shown in Table 3 indicate the percentage of mouse Th17 cells.
CD25^−, CD62L^+, and CD44^int-high cells were sorted from B6 mice.

[2] = tested on: human naive cord blood T cells; test: Human Th17 cell differentiation, naive cord blood T cells (IL-17a and IFN-γ, flow cytometry); format: cell-based; details: six days, IL2, IL23, ILβ, TGFβ
Source text: Human Th17 cell differentiation. Compound effects on human RORγt will be tested by treating human cord blood CD4 T cells with select compounds to determine if such compounds alter differentiation into Th17 lineages.

[3] = biological target: T1, RORγ/γt (Mus musculus, UniProt P51450, T352K); test: RORγ/γt-luc reporter S2 cell assay / HTS (firefly luciferase); details: for 80% Inhib. @: RORγ/γt reporter, S2 cells, concentration for 80% inhibition; for Curve Class: RORγ/γt HTS concentration response curve class; for RORγ/γt reporter activity (in words): S2 cell reporter
Source text: The Drosophila S2 cell line was originally purchased from Invitrogen and was maintained in Schneider's medium supplemented with 10% heat-inactivated bovine fetal calf serum and antibiotics (Invitrogen). Gal4 DNA binding domain (G4 DBD) corresponding to amino acids 1 through 147 of Gal4 protein was PCR amplified to make a fusion construct with mouse RORγt (amino acids 79 to the carboxyl terminal end) lacking its DNA binding domain. The resulting chimeric gene was subcloned into the copper inducible pMT/V5-His A vector (available from Invitrogen). In a similar manner, Gal4 fusion constructs were prepared with mouse RORα (amino acids 142 to end) or Drosophila DHR3 (amino acids 120 to end).
In order to generate stable cell lines, cells were co-transfected with pMT-G4 DBD-RORγt, pMT-G4 DBD-RORα, pMT-G4 DBD-DHR3, or pMT-G4DBDVP16 and pHygro plasmids (Invitrogen) and screened for resistant colonies in the presence of hygromycin (0.3 mg/mL). More than 150 independent RORγ stable clones with luciferase reporters (pMt-RORγ_luc) were tested for their suitability for the high-throughput screening (HTS) based on the following criteria: high signal-to background ratio in 384- and 1,536-well plates, their high induction rate upon the addition of copper, and RORγ/γt specificity probed by the dsRORγ- or RORγ/γt antagonist-mediated suppression. Positive clones were further transfected with pUAST-firefly luciferase, polIII-Renilla luciferase, and pCoPuro (Iwaki, Figuera et al. 2003) (“Rapid selection of Drosophila S2 cells with the puromycin resistance gene.” Biotechniques 35(3): 482-4, 486.) and selected with puromycin (2.5 ug/ml). […] Using similar methods, stable clones with genomic integration of the luciferase reporters and other reporters were generated such as pMT-RORα_luc, pMT-DHR3_luc, or pMT-VP16_luc.
600 G4 DBD-RORγ/γt-luc reporter (#25) or G4 DBD-VP16-luc reporter cells were distributed into each well of 1,536-well white bottom plates in 4 μl S2 cell culture volume containing hygromicin (300 μg/ml) and puromycin (2 μg/ml). Small compounds in seven different concentrations range from 46 μM to 1.7 nM were pin-transferred (23 nl) by a robot (Inglese et al., 2006, Proc. Natl. Acad. Sci. 103:11473-8). […] After 20-hour incubation at ambient temperature, 1.5 μl firefly luciferase detection mix was added and the luciferase activities were measured in 10 min. ViewLux luminometers were used for measuring luciferase signal.
Since their cognate DNA binding sites were not well characterized, the DNA binding domains (DBD) of RORγ/γt, RORα(mouse homolog for PORγ), and DHR3 (Drosophila orthologue for ROR family proteins) were replaced with the heterologous yeast GAL4 DBD. The transcriptionally active domain of general transcriptional activator VP16 was also fused with GAL4 DBD.

[4] = biological target: T2, RORγ (Homo sapiens, UniProt P51449); test: RORγ overexpression dependent IL17a production in human CD4 T cells (RORγt-IRES-GFP transduced); format: cell-based; details: human peripheral blood naive CD4+ T cells, transduced day 1, analyzed day 6
T2 construct: expressed in transfected cells; host or cells: human peripheral blood naive CD4+ T cells, virally transduced
T2 sequence (P51449 1-497 isoform P51449-2): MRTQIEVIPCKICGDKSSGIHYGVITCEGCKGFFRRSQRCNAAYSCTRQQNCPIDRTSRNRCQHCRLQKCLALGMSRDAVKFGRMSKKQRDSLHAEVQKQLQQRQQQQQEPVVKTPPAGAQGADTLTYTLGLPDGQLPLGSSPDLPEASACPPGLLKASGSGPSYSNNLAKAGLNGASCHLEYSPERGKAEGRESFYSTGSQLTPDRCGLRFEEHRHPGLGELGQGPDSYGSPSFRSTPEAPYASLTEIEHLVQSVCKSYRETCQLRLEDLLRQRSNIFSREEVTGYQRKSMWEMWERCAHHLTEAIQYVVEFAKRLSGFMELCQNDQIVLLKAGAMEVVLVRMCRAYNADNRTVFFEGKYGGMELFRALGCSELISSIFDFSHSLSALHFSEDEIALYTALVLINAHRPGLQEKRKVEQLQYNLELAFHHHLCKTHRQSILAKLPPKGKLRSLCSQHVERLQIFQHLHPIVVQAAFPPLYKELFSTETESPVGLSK
Description: ROR dependent Th17 cell differentiation.
GFP expressing cells were gated for analysis. DMSO or compounds were added 6-8 hours after viral transduction.

[5] = tested on: VP16-luc, RORα-luc, and DHR3-luc reporter S2 cell lines; test: S2 cell reporter specificity test on other closely related reporters; format: cell-based; details: S2 cell assay
[6] = biological target: T1, RORγ/γt; test: Small-scale screening, G4BD-RORγt stable S2 cells with transient transfection of two luciferase constructs; format: cell-based; set-up: expressed in transfected cells
Description: Promega Dual-Glo system is widely used for HTS as the luciferase substrates. Cell culture medium was reduced to the final volume of 10 μl or less and 10 μl of Dual-glo and 10 μl of Stop-glo luciferase substrates were added in a sequencial manner (Promega). Firefly and Renilla luciferase activity was determined by measuring luminescence signals using an automated 384-well plate reader equipped with multiple stack units (such as the Analyst GT or Envision plate readers).

[7] = 5 μM, DMSO 25% Th17, compound added Day 1, analyzed Day 4
[8] = 20 μM, DMSO 17% Th17, compound added Day 1, analyzed Day 4
[9] = at 10 uM (Table 4, printed in 20 μM column)

T1 sequence (P51450 with tags, fused parts or gaps T352K): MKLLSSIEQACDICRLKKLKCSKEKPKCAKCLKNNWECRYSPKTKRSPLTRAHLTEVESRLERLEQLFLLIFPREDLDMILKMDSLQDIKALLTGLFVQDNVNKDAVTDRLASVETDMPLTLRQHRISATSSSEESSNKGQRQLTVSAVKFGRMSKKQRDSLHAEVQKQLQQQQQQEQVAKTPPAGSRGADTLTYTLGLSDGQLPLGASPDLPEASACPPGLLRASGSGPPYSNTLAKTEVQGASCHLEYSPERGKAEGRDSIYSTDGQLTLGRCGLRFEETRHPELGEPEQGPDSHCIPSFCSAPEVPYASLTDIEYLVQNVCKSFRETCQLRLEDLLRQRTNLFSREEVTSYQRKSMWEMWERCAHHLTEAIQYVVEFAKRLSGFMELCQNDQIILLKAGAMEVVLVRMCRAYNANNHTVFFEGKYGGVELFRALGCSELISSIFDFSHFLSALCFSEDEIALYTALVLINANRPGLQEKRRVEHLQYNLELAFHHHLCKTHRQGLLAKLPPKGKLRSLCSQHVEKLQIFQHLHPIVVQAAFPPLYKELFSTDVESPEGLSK

IC50 [3]	80% Inhib. @ [3]	Compound	percentage of mouse Th17 cells (IL17a production) [1, 7]	percentage of mouse Th17 cells (IL17a production) [1, 8]	other results
–	–	CCOC(=O)C1CCN(CC(=O)Nc2cc(C)nn2-c2nc3ccccc3s2)CC1 [MLS000569401-02]	15%	–	–
–	–	C[C@H]1[C@H](C)CC[C@]2(C(=O)O)CC[C@]3(C)C(=CC[C@@H]4[C@@]5(C)CC[C@H](O)C(C)(C)[C@@H]5CC[C@]43C)[C@H]12 [ursolic acid]	–	–	effect on mouse Th17 cell differentiation / IL-17a in mouse CD4 T cells (in words) [1]: RORγt specific inhibitory effects; effect on human CD4 T cell cytokine production (in words) [2]: RORγt specific inhibitory effects
–	–	Cc1nn(-c2cc(C)c3ccccc3n2)c2c1C1C(C2)C1(C)C (stereo not shown) [MLS000526165-02]	–	8.3%	–
1600 nM	8.843 µM	O=C(CCCN1C(=O)/C(=C/c2ccccc2Cl)SC1=S)Nc1cccnc1 [MLS001034558-02]	14.3%	dead	–
281 nM	0.7759 µM	Cc1ccc(Sc2cncc3sc(C(N)=O)cc23)cc1 [NCGC00167761-02]	11.6%	3.6%	–
–	–	CC(=O)[C@@]1(O)CC[C@H]2[C@H]3C[C@@H](C)C4=CC(=O)C=C[C@]4(C)[C@@]3(F)[C@@H](O)C[C@]21C [NCGC00016442-02]	4.8%	2.6%	–
17800 nM	62.17 µM	O=C(NC(=S)Nc1nc(-c2ccccc2)cs1)c1cccnc1 [MLS000592121-02]	27.7%	27.7%	–
543 nM	1.646 µM	COc1ccc(C(=O)/C=C/c2ccc(OC)cc2OC)c(O)c1 [MLS001048850-02]	–	11.9%	–
–	–	CC(C)(C)c1ccc(-c2noc(CCC(=O)Nc3cccnc3)n2)cc1 [MLS001217081-02]	–	8.3%	–
–	–	Cc1cc(C)n(-c2nc(SCC(=O)O)c3c4c(sc3n2)CCCC4)n1 [MLS000778763-02]	–	10.2%	–
–	–	Cc1cccc(-c2nc3cc(NC(=O)C4CCCO4)ccc3o2)c1 (stereo not shown) [MLS000700815-02]	–	11.9%	–
134 nM	0.4389 µM	CCOC(=O)c1sc(NC(=O)c2cc3c(s2)CCC(C)C3)nc1C (stereo not shown) [MLS000566729-02]	16.3%	12.1%	–
–	–	CCOc1ccc(-c2cc(CCCC(=O)NCc3cccnc3)no2)cc1 [MLS000118457-02]	–	10.7%	–
–	–	CCOC(=O)[C@@H]1[C@H]2COc3ccc(Br)cc3[C@@H]2N2C(=O)N(c3ccccc3)C(=O)[C@@]12C [MLS001066232-01]	–	–	percentage of mouse Th17 cells (IL17a production) [1, 9]: 10.4 (at 10 uM) %; AC50 [3]: 10000 nM; Curve Class [3]: −2.1; RORγ/γt reporter activity (in words) [3]: inhibition of RORγ reporter; activity of other closely related reporters (in words) [5]: without affecting the activity; RORγ overexpression dependent IL17a production (in words) [4]: inhibit
8670 nM	12.38 µM	O=C(CCCOc1ccccc1)Nc1nc2ccccc2[nH]1 [MLS000772650-02]	16.9%	9.9%	–
–	–	CC1OC(OC2C(O)CC(OC3C(O)CC(OC4CCC5(C)C(CCC6C5CC(O)C5(C)C(C7=CC(=O)OC7)CCC65O)C4)OC3C)OC2C)CC(O)C1O (stereo not shown) [digoxin, reference compound]	–	–	Th17 (percentage of mouse Th17 cells) ([1]; 10 μM, DMSO 26% (Table 5)): 0.91%
–	–	C=C(NC(=O)c1ccccc1)N1CCN(c2ncc3c(=O)c(C(=O)O)cn(CC)c3n2)CC1 [MLS000777984-02]	–	8.9%	effect on mouse Th17 cell differentiation / IL-17a in mouse CD4 T cells (in words) [1]: RORγt specific inhibitory effects
2610 nM	7.292 µM	O=C(/C=C/c1ccc(S(=O)(=O)N2CCOCC2)cc1)NC(=S)Nc1ccc(N2CCOCC2)cc1 [MLS000402315-02]	–	4.8%	–
–	–	C[C@H]1O[C@@H](O[C@H]2[C@@H](O)C[C@H](O[C@H]3[C@@H](O)C[C@H](O[C@H]4CC[C@@]5(C)[C@H](CC[C@@H]6[C@@H]5CC[C@]5(C)[C@@H](C7=CC(=O)OC7)CC[C@]65O)C4)O[C@@H]3C)O[C@@H]2C)C[C@H](O)[C@@H]1O [digitoxin]	–	–	RORγ/γt antagonist identification (in words) [6]: specific RORγ/γt antagonists
–	–	C[C@H]1[C@H](C)CC[C@]2(C(=O)O)CC[C@]3(C)C(=CC[C@@H]4[C@@]5(C)CC[C@H](O)C(C)(C)[C@@H]5CC[C@]43C)[C@H]12 [MLS000728569-02]	3.7%	dead	–
13400 nM	35.57 µM	COc1ccc(OC)c(NC(=S)N(CCc2c(C)[nH]c3ccccc23)Cc2cccs2)c1 [MLS000696943-02]	13.9%	3.1%	–

Compound	IC50 [3]	80% Inhib. @ [3]	percentage of mouse Th17 cells (IL17a production) [1, 7]	percentage of mouse Th17 cells (IL17a production) [1, 8]	other results
CO[C@H]1[C@@H](O)CC(OC2[C@@H](O)CC(OC3[C@@H](O)C[C@H](OC4CC[C@@]5(C)C(CCC6C5CC(O)[C@]5(C)[C@H](C7=CC(=O)OC7)CCC65O)C4)O[C@@H]3C)O[C@@H]2C)O[C@@H]1C (stereo partly shown) [NCGC00168746-02]	1990 nM	6.27 µM	4.5%	1.2%	–
CCOC(=O)[C@@H]1[C@H]2COc3cc(OC)ccc3[C@@H]2N2C(=O)N(c3ccc(C)cc3)C(=O)[C@@]12C [MLS001066267-01]	5000 nM	10 µM	–	–	percentage of mouse Th17 cells (IL17a production) [1, 9]: 13.5 (at 10 uM) %; AC50 [3]: 5010 nM; Curve Class [3]: −2.1; RORγ overexpression dependent IL17a production (in words) [4]: inhibit
C=C1NN=C(c2ccccc2Br)N1N=Cc1ccc(N(CC)CC)cc1 [MLS000767819-02]	2780 nM	7.562 µM	–	10.2%	RORγ/γt reporter activity (in words) [3]: suppression of RORγ reporter activity; activity of other closely related reporters (in words) [5]: without having effects

Reference: patent US9101600B2, “Compounds as RORγt modulators and uses thereof” (New York University, priority 2010, dated 2015)
